Experiments:
[1] = target: CHKA (Homo sapiens, UniProt P35790); assay: Differential scanning fluorimetry (DSF); format: binding; parameters: host or cells: E. coli BL21(DE3); conditions: 10 µM compound, 2 µM CHKA
Experimental: mM NaCl, 5% glycerol, 500 mM imidazole, 0.5% TCEP, pH 7.5), the eluent was concentrated, and further purified by size exclusion chromatography using a HiLoad 16/600 Superdex S200 column (Cytiva) pre-equilibrated in Buffer C (20 mM HEPES, 150 mM NaCl, pH 7.5). The resulting protein purity was assessed by SDS-PAGE, and protein identity was confirmed by tryptic digest analysis. Protein concentration was determined to be 35.5 mg/mL, and was calculated using a theoretical molar extinction coefficient of 58830 M-1cm-1 as determined by ProtParam.[5] […]
Differential Scanning Fluorimetry (DSF)
DSF buffer (20 mM HEPES, 150 mM NaCl, 0.5 mM TCEP, pH 7.5) containing 5x SYPRO Orange (Thermo Fisher Scientific) and CHKA (2 µM) was incubated with 10 µM compound at 2% DMSO final concentration in a 96-well semi-skirted real time PCR plate. Fluorescence was measured in each well over a 40-80 °C gradient using a Stratagen MX3005p qPCR instrument (Agilent Technologies). […]

[2] = tested on: primary human cell‐based tissue and disease models; assay: BioMAP Diversity PLUS panel; conditions: for clustering of overall BioMAP responses across all biomarkers: 12 systems, Pearson's correlation >0.7; for IgG secretion, BioMAP PBMC panel: BioMAP B cell profiling
From the text: Having confirmed that UNC0638 and UNC0737 are potent bona fide CHKA inhibitors, we next turned our attention to further investigate the role of CHKA in cellular signalling. While CHKA has been studied extensively in the context of malignant disease, there has been a growing acknowledgment of its relevance in immune metabolism.[9, 10] […] We profiled UNC0638 and UNC0737 alongside the orthogonal CHKA inhibitors V‐11‐0711 and ARIAD against the BioMAP Diversity PLUS panel (Figures S7).[24] This set comprises 148 distinct biomarkers across 12 systems, including panels for systemic immune responses. […] The decrease in IgG secretion was accompanied by a reduction in stimulation‐induced B cell maturation into CD27^+IgD^− memory CD19^+ B cells (Figure 4D). […]
consecutive concentrations change in the same direction relative to vehicle controls, are outside of the significance envelope, and have at least one concentration with an effect size > 20% (|log10ratio| > 0.1). Biomarker key activities are described as modulated if these activities increase in some systems, but decrease in others. Cytotoxicity is indicated on the profile plot by a thin black arrow above the x- […]
Cytotoxicity and antiproliferative arrows only require one concentration to meet the indicated threshold for profile annotation. […]

[3] = target: T1, HNRNPD (Homo sapiens, UniProt Q14103); assay: PISA thermal profiling, K562 cell lysates; format: binding; conditions: K562 lysate, 30 µM, 15 min, n=3
T1 construct: endogenous in cells; host or cells: K562 cell lysate
Experimental: (§1) Experiments were performed as described earlier with few modifications. In short, 3 replicates of intact HepG2 cells were treated with 30 µM UNC0638, […] or corresponding volume of DMSO in medium-free experimental buffer for 60 min at 37 °C with end-over-end rotation. For lysates: Washed K562 cells were resuspended in medium-free experimental buffer and lysed by three freeze-thaw cycles. Lysate was centrifugated 20,000 × g for 20 min at 4 °C to remove cell debris. The cleared lysate was treated with 30 µM UNC0638, UNC0373 or corresponding volume of DMSO for 15 min at RT with end-over-end rotation. Each treated cell suspension or lysate was divided into 12 aliquots and subjected to a 12-step heat gradient from 44 °C to 64 °C. All the temperature points were pooled together to form […] individual samples. Soluble fraction was separated from precipitated proteins […]
(§2) by centrifugation at 30,000 × g for 20 min at 4 °C. The soluble fractions were collected to fresh tubes and further processed to be analysed with mass spectrometry. Sample handling, TMT labelling, LC-MS/MS analysis, protein identification and data analysis was performed as described earlier.[12] […]
(§3) Figure S3: Western blot of elution fractions after chemical pulldown with UNC0965 in MCF7 cell extract pre-incubated with indicated compounds (20 μM) or DMSO.
(§4) Figure S4: PISA thermal profiling results in K562 cell lysates. A) Volcano plots of UNC0638 and […]
(§5) Dashed lines represent amplitude > 0.05, < - 0.05 and log10(adjusted p-values) > 2 (two-sided two sample t-test, Benjamini-Hochberg corrected, n = 3).
(§6) 6,924 proteins were identified. B) UNC0737 stabilises CHKA stronger than UNC0638. […]

[4] = target: T2, RBBP8NL (Homo sapiens, UniProt Q8NC74); assay: PISA thermal profiling, K562 cell lysates; format: binding; conditions: K562 lysate, 30 µM, 15 min, n=3
T2 construct: endogenous in cells; host or cells: K562 cell lysate
Experimental: as §1, §2, §3, §4, §5, §6

[5] = target: T3, R3HCC1L (Homo sapiens, UniProt Q7Z5L2); assay: PISA thermal profiling, K562 cell lysates; format: binding; conditions: K562 lysate, 30 µM, 15 min, n=3
T3 construct: endogenous in cells; host or cells: K562 cell lysate
Experimental: as §1, §2, §3, §4, §5, §6

Sequence of CHKA (P35790 75-457 limits assumed): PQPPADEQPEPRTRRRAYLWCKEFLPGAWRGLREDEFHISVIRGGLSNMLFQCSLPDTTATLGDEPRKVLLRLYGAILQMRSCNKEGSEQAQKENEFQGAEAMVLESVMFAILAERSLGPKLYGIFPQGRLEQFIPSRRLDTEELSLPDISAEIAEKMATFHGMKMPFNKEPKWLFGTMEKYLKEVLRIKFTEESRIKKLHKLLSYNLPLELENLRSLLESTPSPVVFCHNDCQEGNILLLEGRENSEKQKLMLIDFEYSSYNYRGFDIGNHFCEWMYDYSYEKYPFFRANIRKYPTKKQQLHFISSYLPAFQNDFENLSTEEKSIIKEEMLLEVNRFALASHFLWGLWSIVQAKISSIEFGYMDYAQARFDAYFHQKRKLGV
T2 sequence (Q8NC74 whole entry): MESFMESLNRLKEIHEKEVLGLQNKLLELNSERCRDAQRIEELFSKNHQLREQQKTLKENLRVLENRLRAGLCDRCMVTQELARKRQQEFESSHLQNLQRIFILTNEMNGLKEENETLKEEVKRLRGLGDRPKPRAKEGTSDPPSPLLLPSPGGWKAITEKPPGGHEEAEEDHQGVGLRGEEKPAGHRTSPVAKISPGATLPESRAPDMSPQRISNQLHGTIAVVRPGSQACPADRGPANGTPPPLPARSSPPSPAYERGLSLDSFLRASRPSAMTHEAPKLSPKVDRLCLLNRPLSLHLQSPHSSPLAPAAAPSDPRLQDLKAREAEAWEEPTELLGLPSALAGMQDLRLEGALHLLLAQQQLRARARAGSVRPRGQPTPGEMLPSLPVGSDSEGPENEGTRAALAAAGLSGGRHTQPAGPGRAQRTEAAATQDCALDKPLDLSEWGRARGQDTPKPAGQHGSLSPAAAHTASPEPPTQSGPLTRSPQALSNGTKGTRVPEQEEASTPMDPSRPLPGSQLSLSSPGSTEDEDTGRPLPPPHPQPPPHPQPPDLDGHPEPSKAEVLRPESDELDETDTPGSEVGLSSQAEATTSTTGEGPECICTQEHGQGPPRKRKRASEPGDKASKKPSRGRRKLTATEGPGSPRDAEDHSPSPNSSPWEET
T3 sequence (Q7Z5L2 1-184 isoform Q7Z5L2-3): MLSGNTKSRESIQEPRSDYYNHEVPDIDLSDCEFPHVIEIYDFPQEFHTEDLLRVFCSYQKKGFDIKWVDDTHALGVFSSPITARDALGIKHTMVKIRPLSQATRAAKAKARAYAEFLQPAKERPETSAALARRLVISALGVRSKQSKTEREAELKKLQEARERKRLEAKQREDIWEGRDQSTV
T1 sequence (Q14103 whole entry): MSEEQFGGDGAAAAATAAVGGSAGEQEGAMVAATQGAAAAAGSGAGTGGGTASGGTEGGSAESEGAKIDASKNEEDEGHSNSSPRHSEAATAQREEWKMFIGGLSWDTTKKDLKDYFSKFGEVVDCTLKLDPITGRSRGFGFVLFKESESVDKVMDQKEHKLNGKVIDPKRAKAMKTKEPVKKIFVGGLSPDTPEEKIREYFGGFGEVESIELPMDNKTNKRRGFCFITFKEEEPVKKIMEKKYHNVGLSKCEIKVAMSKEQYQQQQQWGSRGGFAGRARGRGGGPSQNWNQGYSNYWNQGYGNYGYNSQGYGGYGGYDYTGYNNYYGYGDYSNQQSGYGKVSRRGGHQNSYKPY

SMILES | thermal stabilisation of CHKA (DSF) [1] | clustering of overall BioMAP responses across all biomarkers [2] | IgG secretion, BioMAP PBMC panel [2] | effect_CETSA_Lysate (PISA amplitude), HNRNPD [3] | effect_CETSA_Lysate (PISA amplitude), RBBP8NL [4] | effect_CETSA_Lysate (PISA amplitude), R3HCC1L [5]
COc1cc2c(NC3CCN(C(C)C)CC3)nc(C3CCCCC3)nc2cc1OCCCN1CCCC1 [UNC0638] | thermal stabilisation | clustered together with the known CHKA inhibitors | significant effects on IgG secretion | 0.387 | 0.217 | 0.239
COc1cc2c(N(C)C3CCN(C(C)C)CC3)nc(C3CCCCC3)nc2cc1OCCCN1CCCC1 [UNC0737] | thermal stabilisation | clustered together with the known CHKA inhibitors | significant effects on IgG secretion | 0.605 | 0.393 | 0.415
